Like-named read-outs stand apart in the source and are kept apart here.
Assays:
[1] = tested on: PGE2 production; assay: Inhibition of PGE2 formation in LPS-stimulated RAW 264.7 macrophages (EIA); type: cell-based, murine; conditions: Mus musculus, read-out: PGE2 Production by RAW Cells IC50
Description: (§1) The anti-inflammatory effects of the compounds were evaluated in activated macrophages by determining the inhibition of the synthesis of nitric oxide and/or PGE2. In order to induce an in vitro “inflammatory response”, murine macrophages RAW264.7 were stimulated with lipopolysaccharide (LPS) without or with graded amounts of the test substances. Murine macrophages RAW 264.7 cells respond to LPS-stimulation by the release of substantial amounts of Prostaglandin E2 (PGE2) and nitric oxide (NO), which is impaired by anti-inflammatory compounds. Prostaglandins PGE2 play a critical role in the inflammation process, while nitric oxide is a hallmark of inflammation in conditions like arthritis. Therefore, we evaluated the effect of the compounds on PGE2 and NO production.
RAW 264.7 cells: were cultured in Dulbecco's Modified eagle Medium (DMEM) supplemented with 10% fetal calf serum (FCS), 50 units/ml penicillin, 50 μg/ml streptomycin, L-glutamine and nonessential amino acids (NEM, Life Technologies, No. 11140). RAW cells were used between passage 10 and 50. For the experiments, cells were seeded into 6-well, 12-well or 96-well plates at 2, 1 and 0.05 mio cells per well, respectively, and used after 1 or 2 days of pre-culture. Cells were starved in complete DMEM medium containing 0.25% FCS 18 hours before the treatment. Cells were stimulated with LPS (1 μg/ml) for 24 hours in phenol-free DMEM containing 0.25% FCS. Substances to be tested were dissolved in DMSO (usually at 10 mM) and added to the culture medium concomitantly with the stimulus. […] After 24 hours nitrite concentrations were measured in culture supernatants by the Griess reaction and secreted PGE2 was determined by Enzyme immunoassay (EIA) in unstimulated and LPS-stimulated RAW264.7 cells. The compounds were simultaneously tested at different concentrations to obtain a dose response curve. […] The effects of compounds of the formula (I) on PGE2 production was also measured in the murine macrophage cell line RAW 264.7 (Table 1).

[2] = tested on: COX-2; assay: Gene expression in LPS-stimulated THP-1 cells, quantitative RT-PCR; type: cell-based, human; conditions: THP-1, ligustilide 25 μM, LPS 1 μg/ml, 4 hours
Description: (§2) THP-1 cells, a human monocyte/histiocyte cell line, were cultured in RPMI 1640 medium supplemented with 10% FCS, 50 units/ml penicillin, […] streptomycin, NEM and 2×10^−5 M β-mercaptoethanol. Cells were treated with 50 nM phorbol myristate acetate for 3 days. Cells were starved overnight in medium containing 0.25% FCS before being treated. Cells were stimulated with LPS (1 μg/ml) for 4 hours in phenol-free RPMI containing 0.25% FCS. Ligustilide (25 μM) was added to the culture medium concomitantly with the stimulus. […] LPS-stimulation induces the expression of a large variety of genes including those of inflammatory pathways. After 4 hours of stimulation we have evaluated the impact of ligustilide on the expression of inflammatory genes using quantitative real-time RT-PCR (reverse transcriptase polymerase chain reaction) technology (Table 2).

[3] = tested on: MIP-2; assay: as above; type: cell-based, human; conditions: THP-1, ligustilide 25 μM, LPS 1 μg/ml, 4 hours
Description: as §2

[4] = tested on: IL-6; assay: as above; type: cell-based, human; conditions: THP-1, ligustilide 25 μM, LPS 1 μg/ml, 4 hours
Description: as §2

[5] = tested on: IL-1α; assay: as above; type: cell-based, human; conditions: THP-1, ligustilide 25 μM, LPS 1 μg/ml, 4 hours
Description: as §2

[6] = tested on: IL-8; assay: as above; type: cell-based, human; conditions: THP-1, ligustilide 25 μM, LPS 1 μg/ml, 4 hours
Description: as §2

[7] = tested on: MIP-3α; assay: as above; type: cell-based, human; conditions: THP-1, ligustilide 25 μM, LPS 1 μg/ml, 4 hours
Description: as §2

[8] = tested on: TNF-α; assay: as above; type: cell-based, human; conditions: THP-1, ligustilide 25 μM, LPS 1 μg/ml, 4 hours
Description: as §2

[9] = tested on: adhesion of U937 to human umbilical cord endothelial cells (HUVEC); assay: Adhesion of U937 monocytes to TNF-α stimulated HUVEC; type: cell-based; conditions: 20 hours stimulation
Description: (§3) Artherosclerotic lesions can develop as a consequence of endothelial dysfunction. This is reflected by altered i.e. increased adhesion of monocytes to endothelial layers. We evaluated the effect of ligustilide on adhesion of U937, a monocyte cell line, to human umbilical cord endothelial cells (HUVEC). HUVEC were stimulated with TNF-α in the absence or presence of ligustilide (25 or 50 μmol/L) for 20 hours and the adhesion of U937 was determined according to Carluccio et al. (Arterioscler Thromb Vasc Biol 2003; 23, 622-629). […] Adhesion of monocytes to endothelial layers is mediated by the expression of intercellular adhesion molecule 1 (ICAM-1). Therefore, we further analyzed the effects of ligustilide on the level of ICAM-1 mRNA in HUVEC by quantitative RT-PCR.

[10] = tested on: MMP-13; assay: Gene expression in IL-1β activated chondrocytes, RT-PCR; type: cell-based; conditions: 4 hours, SW1353 or normal human chondrocytes, concentration not given
Description: (§4) Articulate tissues i.e. joints contain chondrocytes. Their physiological deterioration leads to the erosion of joint tissue components and thus to e.g. osteoarthritis. We have evaluated the effect of ligustilide on catabolic events in chondrocytes. SW1353 chondrosarcoma cells or normal human chondrocytes (derived from knee) were activated with interleukin-1β in the presence of graded amount of test compounds for 4 hours. RNA was then extracted from these cells and reverse-transcribed. Expression of marker genes for catabolic events like matrix metalloproteinases (MMPs) was determined by quantitative real time polymerase chain reaction (RT-PCR). As shown in Table 5 ligustilide influenced the expression level of several MMPs, which are critically involved in the destruction of extracellular matrix. Ligustilide reduced its expression and thus is supposed to prevent tissue erosion in osteoarthritic diseases.

[11] = tested on: Collagen 1; assay: as above; type: cell-based; conditions: 4 hours, SW1353 or normal human chondrocytes, concentration not given
Description: as §4

[12] = tested on: Collagen 2; assay: as above; type: cell-based; conditions: 4 hours, SW1353 or normal human chondrocytes, concentration not given
Description: as §4

[13] = tested on: MMP-3; assay: as above; type: cell-based; conditions: 4 hours, SW1353 or normal human chondrocytes, concentration not given
Description: as §4

[14] = tested on: MMP-9; assay: as above; type: cell-based; conditions: 4 hours, SW1353 or normal human chondrocytes, concentration not given
Description: as §4

[15] = tested on: MMP-1; assay: as above; type: cell-based; conditions: 4 hours, SW1353 or normal human chondrocytes, concentration not given
Description: as §4

[16] = tested on: intercellular adhesion molecule 1 (ICAM-1) mRNA; assay: ICAM-1 mRNA level in TNF-α stimulated HUVEC, quantitative RT-PCR; type: cell-based, human; conditions: 2 hours of stimulation
Description: as §3

[17] = tested on: carrageenan-induced paw edema; assay: Carrageenan-induced paw edema in rats; type: in vivo; conditions: rat, 100 mg/kg oral; for Paw edema volume: mean of 10
Description: The anti-inflammatory activity of the compounds was evaluated in vivo in the carrageenan-induced paw edema rat model. This model has long been used to assess the anti-inflammatory properties of agents that inhibit prostaglandins, such as nonsteroidal anti-inflammatory drugs (NSAIDs) The model causes time-dependent edema formation following carrageenan administration into the sub-plantar surface of a rat paw. Twenty male Sprague-Dawley rats weighing 130 to 146 g were randomized in two groups. They were housed in a temperature (19.5-24.5° C.) and relative humidity (45-65%) controlled room with a 12-h light/dark cycle, with ad libitum access to filtered tap-water and standard pelleted laboratory chow throughout the study. They were housed 5 per cage and a 5-6-day acclimatization period was observed before any testing. Animals were individually identified on the tail. Ligustilide (100 mg/kg) suspended in 1% methylcellulose (in a volume of 10 mL/kg) or vehicle alone were administered by the oral route in a coded and random order after an overnight fast. One hour later, inflammation is induced by subplantar injection of a 2% carrageenan suspension into the right paw. The paw volume of each rat was measured in mL at the following time points: 0 h, 1.5 h, 3 h, and 4.5 h after the injection of carrageenan. The paw edema volume of each rat at each time point was expressed as the change from initial value. The anti-inflammatory effect on edema volume in treated-groups was expressed as % inhibition [(mean of vehicle-treated group paw edema volume−mean of the treated group paw edema volume)/mean of vehicle-treated group paw edema volume)×100]. All data of paw edema volume are expressed in mL as Mean of 10 rats in each group.

[18] = tested on: nitric oxide (NO) production; assay: Inhibition of nitric oxide production in LPS-stimulated RAW264.7 macrophages (Griess reaction); type: cell-based, murine; conditions: Mus musculus; RAW264.7, LPS 1 μg/ml, 24 hours
Description: as §1
RAW 264.7 cells: were cultured in Dulbecco's Modified eagle Medium (DMEM) supplemented with 10% fetal calf serum (FCS), 50 units/ml penicillin, 50 μg/ml streptomycin, L-glutamine and nonessential amino acids (NEM, Life Technologies, No. 11140). […] After 24 hours nitrite concentrations were measured in culture supernatants by the Griess reaction and secreted PGE2 was determined by Enzyme immunoassay (EIA) in unstimulated and LPS-stimulated RAW264.7 cells. […] The effects of compounds of the formula (I) on PGE2 production was also measured in the murine macrophage cell line RAW 264.7 (Table 1).

[19] = tested on: kaolin-induced arthritis; assay: Kaolin-induced arthritis in rats, gait score; type: in vivo; conditions: rat, 100 mg/kg oral; for Gait score: score from 0 to 3, mean of 10; for % improvement of gait score: vs control
Description: Twenty male Sprague Dawley rats weighing 103 g to 132 g, were included in this study. They were housed in a temperature (19.5-24.5° C.) and relative humidity (45-65%) controlled room with a 12-h light/dark cycle, with ad libitum access to filtered tap-water and standard pelleted laboratory chow, throughout the study. Upon receipt at animal facilities, they were housed 5 per cage and at least a 5-day acclimatization period were observed before any testing. Animals were individually identified on the tail. Arthritis is induced by injection of a 10% kaolin suspension into the knee joint of the rat right hindpaw. In the vehicle-treated group, injection of kaolin suspension into the knee joint of the rat right hindpaw induced an impairment of the gait, evaluated by an increase of the gait score (score from 0 to 3). Gait of animals is used to measure the spontaneous painful behavior. Ligustilide (100 mg/kg) suspended in 1% methylcellulose (in a volume of 10 ml/kg) or vehicle alone were administered by oral route in a coded and random order, 30 min after kaolin injection. The assessment of score behavior was monitored every hour from 1.5 hours to 5.5 hours following drug dosing. The mean gait score was calculated from individual values at each time. The percentage of inhibition of the mean gait score as compared to the mean value of the control group was calculated 1.5, 2.5, 3.5, 4.5 hours and 5.5 hours after dosing.
The results are expressed for each group as the mean of the gait scores of 10 animals per group.

[20] = RAW264.7, RAW 264.7, LPS 1 μg/ml, 24 hours

SMILES: CCCC[C@@H]1OC(=O)c2ccccc21 [3-Butylphthalide, 3S-Butylphthalide]
- IC50 [1, 20]: 3 µM

SMILES: CCC/C=C1\OC(=O)C2=C1CCC=C2 [Ligustilide]
- Gene expression (in %) relative to LPS control, COX-2 [2]: 24.1%
- Gene expression (in %) relative to LPS control, MIP-2 [3]: 52.0%
- Gene expression (in %) relative to LPS control, IL-6 [4]: 52.3%
- Gene expression (in %) relative to LPS control, IL-1α [5]: 15.2%
- Gene expression (in %) relative to LPS control, IL-8 [6]: 72.4%
- Gene expression (in %) relative to LPS control, MIP-3α [7]: 67.2%
- Gene expression (in %) relative to LPS control, TNF-α [8]: 50.6%
- % reduction of adherence ([9]; TNF-α + 25 μM ligustilide): 39%
- Number of adherent cells ([9]; TNF-α + 25 μM ligustilide): 61 ± 25
- % reduction of adherence ([9]; TNF-α + 50 μM ligustilide): 73%
- Number of adherent cells ([9]; TNF-α + 50 μM ligustilide): 27 ± 21
- Gene expression (in %) relative to IL-1β activated chondrocytes, MMP-13 [10]: 50%
- Gene expression (in %) relative to IL-1β activated chondrocytes, Collagen 1 [11]: 115%
- Gene expression (in %) relative to IL-1β activated chondrocytes, Collagen 2 [12]: 184%
- Gene expression (in %) relative to IL-1β activated chondrocytes, MMP-3 [13]: 2%
- Gene expression (in %) relative to IL-1β activated chondrocytes, MMP-9 [14]: 33%
- Gene expression (in %) relative to IL-1β activated chondrocytes, MMP-1 [15]: 17%
- % reduction of expression (ICAM-1 mRNA) ([16]; TNF-α + 25 μM ligustilide): 58%
- Relative ICAM-1 mRNA level ([16]; TNF-α + 25 μM ligustilide): 25 ± 6 arbitrary units
- % reduction of expression (ICAM-1 mRNA) ([16]; TNF-α + 50 μM ligustilide): 73%
- Relative ICAM-1 mRNA level ([16]; TNF-α + 50 μM ligustilide): 16 ± 1 arbitrary units
- % Inhibition of paw edema volume vs vehicle-treated group ([17]; 1.5 h after carrageenan): 29%
- Paw edema volume ([17]; 1.5 h after carrageenan): 0.17 mL
- % Inhibition of paw edema volume vs vehicle-treated group ([17]; 3 h after carrageenan): 27%
- Paw edema volume ([17]; 3 h after carrageenan): 0.32 mL
- % Inhibition of paw edema volume vs vehicle-treated group ([17]; 4.5 h after carrageenan): 11%
- Paw edema volume ([17]; 4.5 h after carrageenan): 0.40 mL
- IC50 [18]: 12.2 ± 3.1 µM
- IC50 [1, 20]: 3.2 µM
- Gait score ([19]; 1.5 hours after dosing): 0.3
- % improvement of gait score ([19]; 1.5 hours after dosing): 25%
- Gait score ([19]; 2.5 hours after dosing): 0.4
- % improvement of gait score ([19]; 2.5 hours after dosing): 43%
- Gait score ([19]; 3.5 hours after dosing): 0.6
- % improvement of gait score ([19]; 3.5 hours after dosing): 50%
- Gait score ([19]; 4.5 hours after dosing): 0.9
- % improvement of gait score ([19]; 4.5 hours after dosing): 53%
- Gait score ([19]; 5.5 hours after dosing): 1.3
- % improvement of gait score ([19]; 5.5 hours after dosing): 38%
- Analgesic effect in comparison to the control group ([19]; at 3.5, 4.5 and 5.5 hours after dosing): significant analgesic effect

SMILES: CCC/C=C1\OC(=O)c2ccccc21 [N-Butylidenephthalide, E + Z-3-Butylidenephthalide]
- IC50 ([1]; RAW264.7, 24 h): 3 µM

From US20090176873A1, “NOVEL USE OF ORGANIC COMPOUNDS” (DSM IP ASSETS B.V., priority 2005, published 2009)
